Structures can show the parent of a compound that is named as a salt. Numbered stars: 1 amine (or outer) side, 2 acyl side, 3 side chain; on linkers, the order of the positions; unused ones are H or OH. Square brackets hold non-standard residues; d marks the D form. Ends that are not written are not given here. Peptide text beside a SMILES is read from it. MetSta(3S,4S) = CSCC[C@H](N[*:1])[C@@H](O)CC(=O)[*:2]; MetSta = statine analogue named MetSta in the name; Sta = CC(C)C[C@H](N)[C@@H](O)CC(=O)O; PEG4 = NCCOCCOCCOCCOCCC(=O)O
B1: Tyr-Pro-Lys-Phe-Ile-Pro-Leu-Gly-DLys-Gly-Glu-Val-Asn-Sta-Val-Ala-Glu-DPro-NH2 × 3TFA (peptide)
peptide: YPKFIPLG[dK]GEVN[Sta]VAE[dP]-NH2
modifications: also: TFA salt (3 TFA)
B2: Tyr-Pro-Tyr-Phe-Ile-Pro-Leu-PEG(4)-Glu-Val-Asn-MetSta-Val-Ala-Glu-DPhe-NH2 × TFA (peptide)
peptide: YPYFIPL[PEG4]EVN[MetSta(3S,4S)]VAE[dF]-NH2
modifications: also: TFA salt
B3: Tyr-Pro-Tyr-Phe-Ile-Pro-DLys-Gly-DLys-Gly-Glu-Val-Asn-Sta-Val-Ala-Glu-DPro-NH2 × 3TFA (peptide)
peptide: YPYFIP[dK]G[dK]GEVN[Sta]VAE[dP]-NH2
modifications: also: TFA salt (3 TFA)
B4: Tyr-Pro-Tyr-Phe-Ile-Pro-Leu-Gly-Gly-Gly-Glu-Val-Asn-MetSta-Val-Ala-Glu-Pro-NH2 × TFA (peptide)
peptide: YPYFIPLGGGEVN[MetSta]VAEP-NH2
modifications: also: TFA salt
B5: Tyr-Pro-Tyr-Phe-Ile-Pro-Leu-PEG(4)-Glu-Val-Asn-MetSta-Val-Ala-Glu-Pro-NH2 × TFA (peptide)
peptide: YPYFIPL[PEG4]EVN[MetSta(3S,4S)]VAEP-NH2
modifications: also: TFA salt

Biological target: BACE1 (Asp2, β-secretase, Memapsin-2) in HEK293 cells stably expressing human APP695 (UniProt P56817 46-501, limits assumed)
Sequence (P56817 46-501 limits assumed): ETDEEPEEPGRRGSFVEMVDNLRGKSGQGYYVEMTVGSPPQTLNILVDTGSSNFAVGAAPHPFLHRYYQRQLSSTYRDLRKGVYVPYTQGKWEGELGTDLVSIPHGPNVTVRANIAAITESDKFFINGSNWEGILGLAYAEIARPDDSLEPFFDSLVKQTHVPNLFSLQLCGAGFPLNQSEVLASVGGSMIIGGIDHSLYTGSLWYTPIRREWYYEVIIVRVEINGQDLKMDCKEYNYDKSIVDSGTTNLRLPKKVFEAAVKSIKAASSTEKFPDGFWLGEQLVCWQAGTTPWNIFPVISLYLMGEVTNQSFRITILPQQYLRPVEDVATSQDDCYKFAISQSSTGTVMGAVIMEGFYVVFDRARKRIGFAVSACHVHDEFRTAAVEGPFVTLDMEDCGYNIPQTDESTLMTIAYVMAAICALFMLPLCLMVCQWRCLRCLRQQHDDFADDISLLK
Assay: cell-based or functional assay
Details: not given

Molecule	IC 50, cellular Aβ-lowering assay (Aβ40 in supernatant of HEK293 cells expressing human APP695)
B1	280 nM
B2	430 nM
B3	19 nM
B4	1340 nM
B5	17 nM

Biological target: T1, BACE1 (Homo sapiens, UniProt P56817)
T1 construct: Human HEK293 cells which are stably transfected with a vector expressing a cDNA of the human APP wt gene (APP695); endogenous in cells; host or cells: HEK293 (human), stably transfected with human APP695 wt cDNA
T1 sequence (P56817 46-501): as the sequence (P56817 46-501 limits assumed) above
Assay: Cellular Aβ-lowering assay (Aβ40 ELISA of culture supernatant)
Assay type: cell-based
Details: active site motifs alone; HEK293 cells stably transfected with human APP wt (APP695); Aβ40 in supernatant; read-out: IC 50
Description: The compounds were investigated in accordance with the test given hereinafter. Cellular Aβ-Lowering Assay: Human HEK293 cells which are stably transfected with a vector expressing a cDNA of the human APP wt gene (APP695) were used to assess the potency of the compounds in a cellular assay. The cells were seeded in 96-well microtiter plates in cell culture medium (Iscove, plus 10% (v/v) fetal bovine serum, glutamine, penicillin/streptomycin) to about 80% confluence and the compounds were added at a 10× concentration in 1/10 volume of medium without FCS containing 8% DMSO (final concentration of DMSO was kept at 0.8% v/v). After 18-20 hrs incubation at 37° C. and 5% CO2 in a humidified incubator the culture supernatant was harvested for the determination of Aβ40 concentrations. 96 well ELISA plates (e.g., Nunc MaxiSorb) were coated with monoclonal antibody which specifically recognize the C-terminal end of Aβ40 (Brockhaus et al., NeuroReport 9, 1481-1486; 1998). After blocking of non-specific binding sites with e.g. 1% BSA and washing, the culture supernatants were added in suitable dilutions together with a horseradish peroxidase-coupled Aβ detection antibody (e.g., antibody 4G8, Senetek, Maryland Heights, Mo.) and incubated for 5 to 7 hrs. Subsequently the wells of the microtiter plate were washed extensively with Tris-buffered saline containing 0.05% Tween 20 and the assay was developed with tetramethylbenzidine/H2O2 in citric acid buffer. After stopping the reaction with one volume 1 N H2SO4 the reaction was measured in an ELISA reader at 450 nm wavelength. The concentrations of Aβ in the culture supernatants were calculated from a standard curve obtained with known amounts of pure Aβ peptide.

Molecule	IC50
CSCC[C@H](NC(=O)[C@H](CC(N)=O)NC(=O)[C@@H](NC(=O)[C@@H](N)CCC(=O)O)C(C)C)[C@@H](O)CC(=O)N[C@H](C(=O)N[C@@H](C)C(=O)N[C@@H](CCC(=O)O)C(=O)N[C@H](Cc1ccccc1)C(N)=O)C(C)C [Example A2, Glu-Val-Asn-MetSta-Val-Ala-Glu-DPhe-NH2 × TFA, reference compound] (H-EVN[MetSta(3S,4S)]VAE[dF]-NH2)	> 40000 nM

Same assay, conditions: dual-site BACE1 inhibitors; HEK293 cells stably transfected with human APP wt (APP695); 18-20 hrs incubation; Aβ40 in supernatant; read-out: IC 50

Molecule	IC50
CC(C)C[C@H](NC(=O)[C@@H]1CCCN1C(=O)[C@@H](CCCCN)NC(=O)[C@H](Cc1ccccc1)NC(=O)[C@H](Cc1ccc(O)cc1)NC(=O)[C@@H]1CCCN1C(=O)[C@@H](N)Cc1ccc(O)cc1)C(=O)NCC(=O)N[C@H](CCCCN)C(=O)NCC(=O)N[C@@H](CCC(=O)O)C(=O)N[C@H](C(=O)N[C@@H](CC(N)=O)C(=O)N[C@@H](CC(C)C)[C@@H](O)CC(=O)N[C@H](C(=O)N[C@@H](C)C(=O)N[C@@H](CCC(=O)O)C(=O)N1CCC[C@@H]1C(N)=O)C(C)C)C(C)C [Example 13, Tyr-Pro-Tyr-Phe-DLys-Pro-Leu-Gly-DLys-Gly-Glu-Val-Asn-Sta-Val-Ala-Glu-DPro-NH2 × 3TFA] (H-YPYF[dK]PLG[dK]GEVN[Sta]VAE[dP]-NH2)	> 40000 nM
CC(C)C[C@H](NC(=O)[C@@H](CCCCN)NC(=O)[C@H](Cc1ccccc1)NC(=O)[C@H](Cc1ccc(O)cc1)NC(=O)[C@@H]1CCCN1C(=O)[C@@H](N)Cc1ccc(O)cc1)C(=O)NCCOCCOCCOCCOCCC(=O)N[C@@H](CCC(=O)O)C(=O)N[C@H](C(=O)N[C@@H](CC(N)=O)C(=O)N[C@@H](CC(C)C)[C@@H](O)CC(=O)N[C@H](C(=O)N[C@@H](C)C(=O)N[C@@H](CCC(=O)O)C(=O)N1CCC[C@@H]1C(N)=O)C(C)C)C(C)C [Example 23, H-Tyr-Pro-Tyr-Phe-DLys-Leu-PEG(4)-Glu-Val-Asn-Sta-Val-Ala-Glu-DPro-NH2 × 3TFA] (H-YPYF[dK]L[PEG4]EVN[Sta]VAE[dP]-NH2)	> 40000 nM
CC[C@H](C)[C@H](NC(=O)[C@H](Cc1ccccc1)NC(=O)[C@H](Cc1ccc(O)cc1)NC(=O)[C@@H]1CCCN1C(=O)[C@@H](N)Cc1ccc(O)cc1)C(=O)N[C@H](CCCCN)C(=O)N[C@@H](CC(C)C)C(=O)NCC(=O)N[C@H](CCCCN)C(=O)NCC(=O)N[C@@H](CCC(=O)O)C(=O)N[C@H](C(=O)N[C@@H](CC(N)=O)C(=O)N[C@@H](CC(C)C)[C@@H](O)CC(=O)N[C@H](C(=O)N[C@@H](C)C(=O)N[C@@H](CCC(=O)O)C(=O)N1CCC[C@@H]1C(N)=O)C(C)C)C(C)C [Example 12, Tyr-Pro-Tyr-Phe-Ile-DLys-Leu-Gly-DLys-Gly-Glu-Val-Asn-Sta-Val-Ala-Glu-DPro-NH2 × 3TFA] (H-YPYFI[dK]LG[dK]GEVN[Sta]VAE[dP]-NH2)	> 40000 nM
CC[C@H](C)[C@H](NC(=O)[C@H](Cc1ccccc1)NC(=O)[C@H](Cc1ccc(O)cc1)NC(=O)[C@@H](CCCCN)NC(=O)[C@@H](N)Cc1ccc(O)cc1)C(=O)N1CCC[C@H]1C(=O)N[C@@H](CC(C)C)C(=O)NCC(=O)N[C@H](CCCCN)C(=O)NCC(=O)N[C@@H](CCC(=O)O)C(=O)N[C@H](C(=O)N[C@@H](CC(N)=O)C(=O)N[C@@H](CC(C)C)[C@@H](O)CC(=O)N[C@H](C(=O)N[C@@H](C)C(=O)N[C@@H](CCC(=O)O)C(=O)N1CCC[C@@H]1C(N)=O)C(C)C)C(C)C [Example 31, H-Tyr-DLys-Tyr-Phe-Ile-Pro-Leu-Gly-DLys-Gly-Glu-Val-Asn-Sta-Val-Ala-Glu-DPro-NH2] (H-Y[dK]YFIPLG[dK]GEVN[Sta]VAE[dP]-NH2)	> 40000 nM
CC[C@H](C)[C@H](NC(=O)[C@H](Cc1ccccc1)NC(=O)[C@H](CCCNC(=N)N)NC(=O)[C@H](C)NC(=O)CN)C(=O)N1CCC[C@H]1C(=O)N[C@@H](C)C(=O)NCC(=O)N[C@H](CCCCN)C(=O)NCC(=O)N[C@@H](CCC(=O)O)C(=O)N[C@H](C(=O)N[C@@H](CC(N)=O)C(=O)N[C@@H](CC(C)C)[C@@H](O)CC(=O)N[C@H](C(=O)N[C@@H](C)C(=O)N[C@@H](CCC(=O)O)C(=O)N1CCC[C@@H]1C(N)=O)C(C)C)C(C)C [Example 16, Gly-Ala-Arg-Phe-Ile-Pro-Ala-Gly-DLys-Gly-Glu-Val-Asn-Sta-Val-Ala-Glu-DPro-NH2 × 3TFA] (H-GARFIPAG[dK]GEVN[Sta]VAE[dP]-NH2; N-terminus assumed)	420 nM
CC[C@H](C)[C@H](NC(=O)[C@H](Cc1ccccc1)NC(=O)[C@H](Cc1ccc(O)cc1)NC(=O)[C@@H]1CCCN1C(=O)[C@@H](N)Cc1ccc(O)cc1)C(=O)N1CCC[C@H]1C(=O)N[C@@H](CC(C)C)C(=O)NCC(=O)NCC(=O)NCC(=O)N[C@@H](CCC(=O)O)C(=O)N[C@H](C(=O)N[C@@H](CC(N)=O)C(=O)N[C@@H](CC(C)C)[C@@H](O)CC(=O)N[C@H](C(=O)N[C@@H](C)C(=O)N[C@@H](CCC(=O)O)C(=O)N1CCC[C@@H]1C(N)=O)C(C)C)C(C)C [Example 2, Tyr-Pro-Tyr-Phe-Ile-Pro-Leu-Gly-Gly-Gly-Glu-Val-Asn-Sta-Val-Ala-Glu-DPro-NH2 × TFA]	420 nM

Same assay, conditions: exosite motifs alone; HEK293 cells stably transfected with human APP wt (APP695); Aβ40 in supernatant; read-out: IC 50

Molecule	IC50
CC[C@H](C)[C@H](NC(=O)[C@H](Cc1ccccc1)NC(=O)[C@H](CCCNC(=N)N)NC(=O)[C@H](C)NC(=O)CNC(=O)[C@@H](NC(=O)[C@H](CO)NC(C)=O)[C@@H](C)O)C(=O)N1CCC[C@H]1C(=O)N[C@@H](C)C(=O)N[C@@H](CC(N)=O)C(N)=O [Example E3, Ac-Ser-Thr-Gly-Ala-Arg-Phe-Ile-Pro-Ala-Asn-NH2] (Ac-STGARFIPAN-NH2)	> 40000 nM
CC[C@H](C)[C@H](NC(=O)[C@H](Cc1ccccc1)NC(=O)[C@H](CCCCN)NC(=O)[C@@H]1CCCN1C(=O)[C@H](Cc1ccc(O)cc1)NC(=O)[C@H](CO)NC(=O)CNC(C)=O)C(=O)N[C@@H](CC(=O)O)C(=O)N[C@@H](C)C(=O)N[C@@H](CC(N)=O)C(N)=O [Example E6, Ac-Gly-Ser-Tyr-Pro-Lys-Phe-Ile-Asp-Ala-Asn-NH2] (Ac-GSYPKFIDAN-NH2)	> 40000 nM
CC[C@H](C)[C@H](NC(=O)[C@H](Cc1ccccc1)NC(=O)[C@H](CCCCN)NC(=O)[C@@H]1CCCN1C(=O)[C@H](Cc1ccc(O)cc1)NC(=O)[C@H](CC(=O)O)NC(=O)CNC(C)=O)C(=O)N1CCC[C@H]1C(=O)N[C@@H](C)C(=O)N[C@@H](CO)C(N)=O [Example E5, Ac-Gly-Asp-Tyr-Pro-Lys-Phe-Ile-Pro-Ala-Ser-NH2] (Ac-GDYPKFIPAS-NH2)	> 40000 nM
YQTFKPANGS [Example E2, Ac-Tyr-Gln-Thr-Phe-Lys-Pro-Ala-Asn-Gly-Ser-NH2, exosite motif peptide tested alone]	> 40000 nM
CC[C@H](C)[C@H](NC(=O)[C@H](Cc1ccccc1)NC(=O)[C@H](CCCCN)NC(=O)[C@@H]1CCCN1C(=O)[C@H](Cc1ccc(O)cc1)NC(=O)[C@H](CC(=O)O)NC(=O)CNC(C)=O)C(=O)N[C@@H](CO)C(=O)N[C@@H](C)C(=O)N[C@@H](CC(N)=O)C(N)=O [Example E4, Ac-Gly-Asp-Tyr-Pro-Lys-Phe-Ile-Ser-Ala-Asn-NH2] (Ac-GDYPKFISAN-NH2)	> 40000 nM
CC(=O)N[C@@H](CCC(N)=O)C(=O)N[C@@H](CCC(N)=O)C(=O)N[C@@H](Cc1ccc(O)cc1)C(=O)N1CCC[C@H]1C(=O)N[C@@H](Cc1ccc(O)cc1)C(=O)N[C@@H](Cc1ccccc1)C(=O)N[C@@H](CCCCN)C(=O)N1CCC[C@H]1C(=O)N[C@@H](C)C(=O)N[C@@H](CC(N)=O)C(N)=O [Example E1, Ae-Gln-Gln-Tyr-Pro-Tyr-Phe-Lys-Pro-Ala-Asn-NH2] (Ac-QQYPYFKPAN-NH2)	> 40000 nM

From patent US10947272B2, “BACE1 inhibitor peptides” (HOFFMANN-LA ROCHE INC., priority 2015, dated 2021)
